A short description of the data set: Assay (III) ThT fibrillation assay for physical stability. In kind it is physicochemical. To be noted: for ThT pH 4.0 lag time: pH 4.0, ThT fibrillation assay. In short, it runs like this:
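Freshly prepared, pH-adjusted formulations with 1 μM ThT incubated at 37 °C under 960 rpm orbital shaking (1 mm), fluorescence (ex 444, em 485 nm) read every 20 min. […] Peptide content before and after measured by reverse-phase HPLC against pramlintide standard.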

Starred links: 1 amine or outer side, 2 acyl side, 3 side chain; linkers in the order of their positions; H or OH if unused. Positions of bridges follow the written chain, without caps; N, C: chain ends. Residues, ends and D or L forms follow the SMILES beside them. Groups on a side chain read outwards from the residue. *: point of attachment. C20 diacid = O=C(O)CCCCCCCCCCCCCCCCCCC(=O)*; C18 diacid = O=C(O)CCCCCCCCCCCCCCCCC(=O)*; γGlu = O=C(O)[C@H](CCC(=O)[*:2])N[*:1]; AEEA = NCCOCCOCC(=O)O

The results in this text go back to patent US8741836B2, “Polypeptides” (Novo Nordisk A/S, priority 2011, dated 2014).

For `CC[C@H](C)[C@H](NC(=O)[C@@H]1CCCN1C(=O)CNC(=O)[C@H](Cc1ccccc1)NC(=O)[C@H](CC(N)=O)NC(=O)[C@H](CC(N)=O)NC(=O)[C@H](CO)NC(=O)[C@H](CO)NC(=O)[C@H](Cc1c[nH]cn1)NC(=O)[C@H](Cc1c[nH]cn1)NC(=O)[C@H](CC(C)C)NC(=O)[C@H](Cc1ccccc1)NC(=O)[C@H](CCC(=O)O)NC(=O)[C@H](C)NC(=O)[C@H](CC(C)C)NC(=O)[C@H](CCCNC(=N)N)NC(=O)[C@H](CCC(N)=O)NC(=O)[C@@H](NC(=O)[C@H](C)NC(=O)[C@@H]1CSSC[C@H](NC(=O)[C@H](Cc2c[nH]cn2)NC(=O)CC[C@H](NC(=O)CCCCCCCCCCCCCCCCCCC(=O)O)C(=O)O)C(=O)N[C@@H](CC(N)=O)C(=O)N[C@@H]([C@@H](C)O)C(=O)N[C@@H](C)C(=O)N[C@@H]([C@@H](C)O)C(=O)N1)[C@@H](C)O)C(=O)N[C@@H](CC(C)C)C(=O)N1CCC[C@H]1C(=O)N1CCC[C@H]1C(=O)N[C@H](C(=O)N[C@@H](CC(N)=O)C(=O)N[C@H](C(=O)NCC(=O)N[C@@H](CO)C(=O)N[C@@H](Cc1c[nH]cn1)C(=O)N[C@H](C(=O)N[C@@H](Cc1ccc(O)cc1)C(N)=O)[C@@H](C)O)C(C)C)[C@@H](C)O` [Example 76, N-alpha-[(S)-4-Carboxy-4-(19-carboxynonadecanoylamino)butyryl]-[His1,Glu14,His17,His35]-pramlintide] ({C20 diacid-γGlu}-HCNTATCATQRLAEFLHHSSNNFGPILPPTNVGSHTY-NH2; disulfide 2-7), the “ThT pH 4.0 lag time” value is listed as over 45 h.
Take `CC[C@H](C)[C@H](NC(=O)[C@@H]1CCCN1C(=O)CNC(=O)[C@H](Cc1ccccc1)NC(=O)[C@H](CC(N)=O)NC(=O)[C@H](CC(=O)O)NC(=O)[C@H](CO)NC(=O)[C@H](CO)NC(=O)[C@H](Cc1c[nH]cn1)NC(=O)[C@H](Cc1c[nH]cn1)NC(=O)[C@H](CC(C)C)NC(=O)[C@H](Cc1ccccc1)NC(=O)[C@H](CCC(=O)O)NC(=O)[C@H](C)NC(=O)[C@H](CC(C)C)NC(=O)[C@H](CCCNC(=N)N)NC(=O)[C@H](CCC(N)=O)NC(=O)[C@@H](NC(=O)[C@H](C)NC(=O)[C@@H]1CSSC[C@H](NC(=O)[C@H](CCCCN)NC(=O)CC[C@H](NC(=O)CCCCCCCCCCCCCCCCCCC(=O)O)C(=O)O)C(=O)N[C@@H](CC(N)=O)C(=O)N[C@@H]([C@@H](C)O)C(=O)N[C@@H](C)C(=O)N[C@@H]([C@@H](C)O)C(=O)N1)[C@@H](C)O)C(=O)N[C@@H](CC(C)C)C(=O)N1CCC[C@H]1C(=O)N1CCC[C@H]1C(=O)N[C@H](C(=O)N[C@@H](CC(N)=O)C(=O)N[C@H](C(=O)NCC(=O)N[C@@H](CO)C(=O)N[C@@H](Cc1c[nH]cn1)C(=O)N[C@H](C(=O)N[C@@H](Cc1ccc(O)cc1)C(N)=O)[C@@H](C)O)C(C)C)[C@@H](C)O` [Example 128, N-alpha-[(S)-4-Carboxy-4-(19-carboxynonadecanoylamino)butyryl]-[Glu14,His17,Asp21,His35]-pramlintide] ({C20 diacid-γGlu}-KCNTATCATQRLAEFLHHSSDNFGPILPPTNVGSHTY-NH2; disulfide 2-7): the “ThT pH 4.0 lag time” value was over 45 h.
The same measure, in the same setting: under `CC[C@H](C)[C@H](NC(=O)[C@@H]1CCCN1C(=O)CNC(=O)[C@H](Cc1ccccc1)NC(=O)[C@H](CC(N)=O)NC(=O)[C@H](CC(N)=O)NC(=O)[C@H](CO)NC(=O)[C@H](CO)NC(=O)[C@H](Cc1c[nH]cn1)NC(=O)[C@H](CCCNC(=N)N)NC(=O)[C@H](CC(C)C)NC(=O)[C@H](Cc1ccccc1)NC(=O)[C@H](CCC(=O)O)NC(=O)[C@H](C)NC(=O)[C@H](CC(C)C)NC(=O)[C@H](CCCNC(=N)N)NC(=O)[C@H](CCC(N)=O)NC(=O)[C@@H](NC(=O)[C@H](C)NC(=O)[C@@H]1CSSC[C@H](NC(=O)[C@H](CCCCN)NC(=O)CC[C@H](NC(=O)CCCCCCCCCCCCCCCCC(=O)O)C(=O)O)C(=O)N[C@@H](CC(N)=O)C(=O)N[C@@H]([C@@H](C)O)C(=O)N[C@@H](C)C(=O)N[C@@H]([C@@H](C)O)C(=O)N1)[C@@H](C)O)C(=O)N[C@@H](CC(C)C)C(=O)N1CCC[C@H]1C(=O)N1CCC[C@H]1C(=O)N[C@H](C(=O)N[C@@H](CC(N)=O)C(=O)N[C@H](C(=O)NCC(=O)N[C@@H](CO)C(=O)N[C@@H](Cc1c[nH]cn1)C(=O)N[C@H](C(=O)N[C@@H](Cc1ccc(O)cc1)C(N)=O)[C@@H](C)O)C(C)C)[C@@H](C)O` [Example 61, N-alpha-[(S)-4-Carboxy-4-(17-carboxyheptadecanoylamino)butyryl]-[Glu14,Arg17,His35]-pramlintide] ({C18 diacid-γGlu}-KCNTATCATQRLAEFLRHSSNNFGPILPPTNVGSHTY-NH2; disulfide 2-7) stands over 45 h.
For the compound `CC[C@H](C)[C@H](NC(=O)[C@@H]1CCCN1C(=O)CNC(=O)[C@H](Cc1ccccc1)NC(=O)[C@H](CC(N)=O)NC(=O)[C@@H](NC(=O)[C@H](CO)NC(=O)[C@H](CO)NC(=O)[C@H](Cc1c[nH]cn1)NC(=O)[C@H](Cc1c[nH]cn1)NC(=O)[C@H](CC(C)C)NC(=O)[C@H](Cc1ccccc1)NC(=O)[C@H](CCC(=O)O)NC(=O)[C@H](C)NC(=O)[C@H](CC(C)C)NC(=O)[C@H](CCCNC(=N)N)NC(=O)[C@H](CCC(N)=O)NC(=O)[C@@H](NC(=O)[C@H](C)NC(=O)[C@@H]1CSSC[C@H](NC(=O)[C@H](CCCCN)NC(=O)CC[C@H](NC(=O)CCCCCCCCCCCCCCCCCCC(=O)O)C(=O)O)C(=O)N[C@@H](CC(N)=O)C(=O)N[C@@H]([C@@H](C)O)C(=O)N[C@@H](C)C(=O)N[C@@H]([C@@H](C)O)C(=O)N1)[C@@H](C)O)[C@@H](C)O)C(=O)N[C@@H](CC(C)C)C(=O)N1CCC[C@H]1C(=O)N1CCC[C@H]1C(=O)N[C@H](C(=O)N[C@@H](CC(N)=O)C(=O)N[C@H](C(=O)NCC(=O)N[C@@H](CO)C(=O)N[C@@H](CC(N)=O)C(=O)N[C@H](C(=O)N1CCC[C@H]1C(N)=O)[C@@H](C)O)C(C)C)[C@@H](C)O` [Example 146, N-alpha-[(S)-4-Carboxy-4-(19-carboxynonadecanoylamino)butyryl]-[Glu14,His17,Thr21,Pro37]-pramlintide] ({C20 diacid-γGlu}-KCNTATCATQRLAEFLHHSSTNFGPILPPTNVGSNTP-NH2; disulfide 2-7), the “ThT pH 4.0 lag time (physical stability in fibrillogenesis assay)” value is listed as over 45 h and the “ThT pH 4.0 lag time” value is on record as over 45 h.
Take `CC[C@H](C)[C@H](NC(=O)[C@@H]1CCCN1C(=O)CNC(=O)[C@H](Cc1ccccc1)NC(=O)[C@H](CC(N)=O)NC(=O)[C@H](CO)NC(=O)[C@H](CO)NC(=O)[C@H](CO)NC(=O)[C@H](Cc1c[nH]cn1)NC(=O)[C@H](CCCCNC(=O)COCCOCCNC(=O)COCCOCCNC(=O)CC[C@H](NC(=O)CCCCCCCCCCCCCCCCC(=O)O)C(=O)O)NC(=O)[C@H](CC(C)C)NC(=O)[C@H](Cc1ccccc1)NC(=O)[C@H](CCC(=O)O)NC(=O)[C@H](C)NC(=O)[C@H](CC(C)C)NC(=O)[C@H](CCCNC(=N)N)NC(=O)[C@H](CCC(N)=O)NC(=O)[C@@H](NC(=O)[C@H](C)NC(=O)[C@@H]1CSSC[C@H](NC(=O)[C@@H](N)CCCCN)C(=O)N[C@@H](CC(N)=O)C(=O)N[C@@H]([C@@H](C)O)C(=O)N[C@@H](C)C(=O)N[C@@H]([C@@H](C)O)C(=O)N1)[C@@H](C)O)C(=O)N[C@@H](CC(C)C)C(=O)N1CCC[C@H]1C(=O)N1CCC[C@H]1C(=O)N[C@H](C(=O)N[C@@H](CC(N)=O)C(=O)N[C@H](C(=O)NCC(=O)N[C@@H](CO)C(=O)N[C@@H](CCC(=O)O)C(=O)N[C@H](C(=O)N[C@@H](Cc1ccc(O)cc1)C(N)=O)[C@@H](C)O)C(C)C)[C@@H](C)O` [Example 83, N-epsilon17-[2-(2-{2-[2-(2-{2-[(S)-4-Carboxy-4-(17-carboxyheptadecanoylamino)butyrylamino]ethoxy}ethoxy)acetylamino]ethoxy}ethoxy)acetyl]-[Glu14,Lys17,Ser21,Glu35]-pramlintide] (H-KCNTATCATQRLAEFLK([AEEA-AEEA-γGlu-C18 diacid])HSSSNFGPILPPTNVGSETY-NH2; disulfide 2-7 (inferred); N-terminus assumed): the “ThT pH 4.0 lag time (physical stability in fibrillogenesis assay)” value is on record as over 45 h and the “ThT pH 4.0 lag time” value is over 45 h.
Take `CC[C@H](C)[C@H](NC(=O)[C@@H]1CCCN1C(=O)CNC(=O)[C@H](Cc1ccccc1)NC(=O)[C@H](CC(N)=O)NC(=O)[C@H](CC(N)=O)NC(=O)[C@H](CO)NC(=O)[C@H](CO)NC(=O)[C@H](Cc1c[nH]cn1)NC(=O)[C@H](CCCNC(=N)N)NC(=O)[C@H](CC(C)C)NC(=O)[C@H](Cc1ccccc1)NC(=O)[C@H](CCC(=O)O)NC(=O)[C@H](C)NC(=O)[C@H](CC(C)C)NC(=O)[C@H](CCCNC(=N)N)NC(=O)[C@H](CCC(N)=O)NC(=O)[C@@H](NC(=O)[C@H](C)NC(=O)[C@@H]1CSSC[C@H](NC(=O)[C@H](Cc2c[nH]cn2)NC(=O)CC[C@H](NC(=O)CCCCCCCCCCCCCCCCCCC(=O)O)C(=O)O)C(=O)N[C@@H](CC(N)=O)C(=O)N[C@@H]([C@@H](C)O)C(=O)N[C@@H](C)C(=O)N[C@@H]([C@@H](C)O)C(=O)N1)[C@@H](C)O)C(=O)N[C@@H](CC(C)C)C(=O)N1CCC[C@H]1C(=O)N1CCC[C@H]1C(=O)N[C@H](C(=O)N[C@@H](CC(N)=O)C(=O)N[C@H](C(=O)NCC(=O)N[C@@H](CO)C(=O)N[C@@H](CC(N)=O)C(=O)N[C@H](C(=O)N1CCC[C@H]1C(N)=O)[C@@H](C)O)C(C)C)[C@@H](C)O` [Example 90, N-alpha-[(S)-4-Carboxy-4-(19-carboxynonadecanoylamino)butyryl]-[His1,Glu14,Arg17,Pro37]-pramlintide] ({C20 diacid-γGlu}-HCNTATCATQRLAEFLRHSSNNFGPILPPTNVGSNTP-NH2; disulfide 2-7): the “ThT pH 4.0 lag time (physical stability in fibrillogenesis assay)” value was over 45 h and the “ThT pH 4.0 lag time” value is listed as over 45 h.
